Here are results for four compounds from patent US20250129033A1, “METAP2 INHIBITORS AND USES THEREOF” (Yissum Research Development Company of the Hebrew …, priority 2022, published 2025).

In series [1] the test system is Choroidal Neovascularization (CNV). The series is described as follows: Laser-induced CNV in mice. Type of series: in vivo, C57Bl/6J mice. The settings on record: Eylea, in the given dose and time. The text has this:
Laser-induced CNV was generated by a previously described technique with some modifications. C57Bl/6J mice (6-8 weeks) were anesthetized by intraperitoneal injections of a mixture of 85% ketamine and 15% xylazine. A mixture of 0.5% tropicamide and 0.5% phenylephrine hydrochloride was applied to both eyes to dilate the pupils. Lesions were induced by a diode pumped solid state laser (0.1 s; spot size, 100 μm; power 120 mW) around the optic nerve through a slit lamp delivery system using a Nidek while a hand-held cover slide was used as a contact lens. Only lesions in which a subretinal bubble or focal serous detachment of the retina developed were used for the experiments. For this purpose, 4 burns were performed per eye while leaving a space around the optic disc. Intravitreal injections of the treatments were performed using a PLI-100 Pico-Injector following the laser procedure. After 7 days mice were euthanized and their eyes were removed and fixed in 4% paraformaldehyde for 60 min. The cornea and lens were removed, and the entire retina was carefully dissected from the eyecup Choroid.
Blood vessels were labeled using a 1:200 dilution of isolectin IB4 conjugated with Alexa Fluor 488 or lectin-FITC. The eyecup was flat-mounted in an aqua-mount with the sclera facing down and the choroid facing up. […] The CNV area (presented in μm2) in choroidal flat mount was evaluated using ImageJ software […]

The next series concerns the target MetAP2 (Homo sapiens, UniProt P50579). The series is described as follows: MetAp2 enzymatic assay, L-Met-AMC substrate (Experimental Set-Up 1). Type of series: biochemical. As to the method: Quantitative MetAP2 activity assay by N-terminal cleavage of substrate 7-amino-4-methyl-courmarin was performed as follows: The activity of MetAP2 was measured using fluorescent peptide substrate L-Met-AMC (Santa Cruz Biotechnology, Inc, sc-207807) as described by Garrabrant et al. (Angiogenesis 7: 91-96, 2004). Briefly, the reaction (100 μl final) was initiated by adding 0.5 μg of MetAP2 or 5 μg HUVEC homogenate to reaction buffer containing 50 mM HEPES (pH 7.4), 100 mM NaCl, 0.1 mM CoCl2, 1 mg/ml PEG6000, and 250 μM L-Met-AMC substrate. The assay was prepared in black flat-bottomed 96-well microtiter plates and fluorescence was measured every 20 s over a period of 60 min at 25° C. using a microplate fluorometer (Bioteck, SynergyHT), with excitation and emission wavelengths set at 360 and 440 nm respectively. As a control the inhibition of the enzyme was obtained by incubating it with TNP-470 for 15 min before the addition of the substrate.
The inhibitory effect of the compounds were tested in MetAp2 enzymatic assay.

The conditions of series [2]: cited from earlier work.

MetAP2, sequence (P50579 whole entry): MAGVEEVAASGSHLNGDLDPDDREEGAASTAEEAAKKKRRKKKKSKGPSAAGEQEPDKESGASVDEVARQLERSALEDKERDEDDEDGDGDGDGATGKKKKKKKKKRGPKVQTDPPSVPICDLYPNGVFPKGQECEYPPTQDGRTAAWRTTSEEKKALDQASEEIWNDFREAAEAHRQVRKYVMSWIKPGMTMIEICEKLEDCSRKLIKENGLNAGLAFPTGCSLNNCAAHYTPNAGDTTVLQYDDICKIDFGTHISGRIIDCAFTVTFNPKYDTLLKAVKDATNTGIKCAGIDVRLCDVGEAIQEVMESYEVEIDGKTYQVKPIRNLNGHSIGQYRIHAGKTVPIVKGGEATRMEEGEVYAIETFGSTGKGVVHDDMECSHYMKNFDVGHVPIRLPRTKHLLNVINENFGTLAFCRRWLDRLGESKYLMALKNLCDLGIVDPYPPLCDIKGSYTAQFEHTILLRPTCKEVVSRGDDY

Consider “Eylea: the standard of care, as treatment for “wet” AMD [reference compound]”, for which the “effect on mouse laser induced CNV” value in series [1] was 59%.

Take `CO[C@H]1C(C2(C)O[C@@H]2CC=C(C)C)[C@]2(CC[C@H]1OC(=O)NC(=O)CCl)CO2` (some centres unmarked) [TNP-470, O-chloroacetylcarbamoyl fumagillol]: on MetAP2 (2.5 microM, read-out: inhibition of the catalytic activity of MetAp2), the inhibition – broadly, the share of the control response that was lost under treatment – at 2.5 µM worked out at 95%. Also, the adverse side-effects result in series [2] (in high doses) is reported as “reversible neurotoxicity in some patients”. In series [2] (intravenous formulation), the half-life in plasma entry is on record as “minutes”.

Turning to `CO[C@@H]1[C@H](OC(=O)NC(=O)CCl)CC[C@]2(CO2)[C@H]1[C@@]1(C)O[C@@H]1CC=C(C)C` [AD-3201], the “inhibition of the catalytic activity of MetAp2” value at MetAP2 (0.5 microM) is 75%; at MetAP2 (2.5 microM), 97%.

Take `CO[C@@H]1[C@H](OC(=O)C23CC4(C)CC(C)(CC(C)(C4)C2)C3)CC[C@]2(CO2)[C@H]1[C@@]1(C)O[C@@H]1CC=C(C)C` [AD-3306, Fumagillol-3,5,7-trimethyladamantane-1-carboxylate]: on MetAP2, the “activity in inhibiting the catalytic activity of MetAp2 compared to TNP-470” value is “almost identical to TNP-470” and the “inhibitory effect in MetAp2 enzymatic assay (ranking among compounds)” value is given as “most active”.
